Data reported in paper PMC7822874, “Chemoprotective antimalarials identified through quantitative high-throughput screening of Plasmodium blood and liver stage parasites” (Scientific Reports, 2021).
Where two headings read alike, the source gives them in different places.

What was measured:
[1] = test system: P. berghei-ANKA-GFP-LucCON liver stage parasites in HepG2-A16-CD81EGFP cells; experiment: P. berghei liver stage Pb-Luc assay, Method 1 (UCSD, 1536-well); for Pb-Luc signal, 1 uM, repeat 1: reference of the scale not given here; for Pb-Luc signal, 1 uM, repeat 2: reference of the scale not given here; for Pb-Luc signal, 1 uM, repeat 3: reference of the scale not given here; for Pb-Luc signal, 3 uM, repeat 1: reference of the scale not given here; for Pb-Luc signal, 3 uM, repeat 2: reference of the scale not given here; for Pb-Luc signal, 3 uM, repeat 3: reference of the scale not given here; assay type: cell-based, Plasmodium berghei; conditions: for Max Resp (signal direction of the dose response) / AC50 / Log AC50 (M): Method 1; for Max Resp (signal direction of the dose response): Decrease = decreasing P. berghei viability with dose, Increase = increasing signal, Inactive = no dose response; for activity at 1 µM / activity at 3 µM: 48 h, average of 2 wells, 1536-well plate; for activity at 1 µM: nominal 1 uM (10 mM stock), […] for 15 mM, 1.2 uM for 12 mM, 2 uM for 20 mM stock; for activity at 3 µM: nominal 3 uM (10 mM stock), 4.5 uM for 15 mM, 3.6 uM for 12 mM, 6 uM for 20 mM stock
[2] = test system: Plasmodium falciparum Dd2 asexual blood stage parasites; experiment: microbe, parasite or virus in culture; parameters: species or system Plasmodium falciparum Dd2 in human erythrocytes; single determination (one 11-point concentration-response curve); conditions: Plasmodium falciparum, DD2, Erythrocyte, 72 h
[3] = test system: luciferase-expressing P. berghei liver stage parasites in HepG2 cells; experiment: Inhibition of liver-stage development assay (ILSDA), Method 2 (WRAIR, 96-well); assay type: cell-based, Plasmodium berghei; conditions: for Max Resp (signal direction of the dose response): Method 2, Decrease = decreasing P. berghei viability with dose, Increase = increasing signal, Inactive = no dose response; for AC50: Plasmodium berghei
in vitro = conditions: human
[4] = Hill fit, 50% of maximum activity response, read-out: AC50
[5] = log10 of molar AC50 from Hill fit
[6] = Plasmodium berghei, repeat 1, read-out: Pb-Luc signal, 1 uM, repeat 1
[7] = Plasmodium berghei, repeat 2, read-out: Pb-Luc signal, 1 uM, repeat 2
[8] = Plasmodium berghei, repeat 3, read-out: Pb-Luc signal, 1 uM, repeat 3
[9] = Plasmodium berghei, repeat 1, read-out: Pb-Luc signal, 3 uM, repeat 1
[10] = Plasmodium berghei, repeat 2, read-out: Pb-Luc signal, 3 uM, repeat 2
[11] = Plasmodium berghei, repeat 3, read-out: Pb-Luc signal, 3 uM, repeat 3
[12] = Plasmodium berghei, Hill fit, 50% of maximum activity response, read-out: AC50
[13] = Plasmodium berghei, log10 of molar AC50 from Hill fit, read-out: Log AC50 (converted)
[14] = HepG2, Method 2, Hill fit, 50% of maximum activity response, read-out: AC50
[15] = HepG2, Method 2, log10 of molar AC50 from Hill fit, read-out: Log AC50 (converted)
[16] = nominal 1 uM (10 mM stock), […] for 15 mM, 1.2 uM for 12 mM, 2 uM for 20 mM stock, average of 2 wells, repeat 2
[17] = nominal 3 uM (10 mM stock), 4.5 uM for 15 mM, 3.6 uM for 12 mM, 6 uM for 20 mM stock, average of 2 wells, repeat 2
[18] = HepG2-A16-CD81EGFP cells, uninfected
[19] = P. berghei liver stage, Method 2, dose response
[20] = HepG2, P. berghei liver stage, Method 2, dose response, read-out: AC50
[21] = HepG2, P. berghei liver stage, Method 2, dose response, read-out: Log AC50 (converted)

SMILES: COc1ccc(-n2nc(C)c([C@@H]3C=C[C@@H](NCc4cccc(Cl)c4)C3)c2C)cc1 [NCGC00391691-01]
- Max Resp (signal direction of the dose response) [1]: Decrease
- AC50 [1, 4]: 2000 nM
- Log AC50 (M) [1, 5]: -5.700 M
- activity at 1 µM [1, 6]: 41.3%
- activity at 1 µM [1, 7]: 40.5%
- activity at 1 µM [1, 8]: 39.6%
- activity at 3 µM [1, 9]: 11.5%
- activity at 3 µM [1, 10]: 13.5%
- activity at 3 µM [1, 11]: 12.4%
- AC50 [1, 12]: 1580 nM
- AC50 [1, 13]: 1580 nM
- AC50 ([2]; read-out: AC50): 1370 nM
- Max Resp (signal direction of the dose response) [3]: Decrease
- AC50 [3, 14]: 1260 nM
- AC50 [3, 15]: 1260 nM
- HepG2 viability signal, 1 uM, repeat 2 (HepG2-A16-CD81EGFP cells; [16]): 103.31%
- HepG2 viability signal, 3 uM, repeat 2 (HepG2-A16-CD81EGFP cells; [17]): 96.15%
- viability at 48 h, 1 µM (in vitro; [18]): 104%
- viability at 48 h, 3 µM (in vitro; [18]): 102%

SMILES: COc1ccc(Nc2cnc3ccc(-c4ccc(OC)c(OC)c4)nn23)cc1 [NCGC00412624-01]
- Max Resp (signal direction of the dose response) [1]: Decrease
- activity at 1 µM [1, 6]: 3.08%
- activity at 1 µM [1, 7]: 5.39%
- activity at 1 µM [1, 8]: 3.47%
- activity at 3 µM [1, 9]: -0.46%
- activity at 3 µM [1, 10]: -0.86%
- activity at 3 µM [1, 11]: -0.14%
- AC50 [1, 12]: 1410 nM
- AC50 [1, 13]: 1410 nM
- AC50 ([2]; read-out: AC50): 1720 nM
- Activity direction (Decrease / Inactive) [3, 19]: Inactive
- HepG2 viability signal, 1 uM, repeat 2 (HepG2-A16-CD81EGFP cells; [16]): 100.79%
- HepG2 viability signal, 3 uM, repeat 2 (HepG2-A16-CD81EGFP cells; [17]): 112.23%
- viability at 48 h, 1 µM (in vitro; [18]): 101%
- viability at 48 h, 3 µM (in vitro; [18]): 109%

SMILES: CCC(CC)c1cc([C@H]2CN3CC[C@H]2C[C@@H]3CNC(=O)COc2ccccc2)nc(-c2ccncc2)n1 [NCGC00420983-01]
- Max Resp (signal direction of the dose response) [1]: Decrease
- activity at 1 µM [1, 6]: 55.4%
- activity at 1 µM [1, 7]: 47%
- activity at 1 µM [1, 8]: 38%
- activity at 3 µM [1, 9]: 33.3%
- activity at 3 µM [1, 10]: 38.2%
- activity at 3 µM [1, 11]: 41%
- AC50 ([2]; read-out: AC50): 1500 nM
- Activity direction (Decrease / Inactive) [3, 19]: Inactive
- HepG2 viability signal, 1 uM, repeat 2 (HepG2-A16-CD81EGFP cells; [16]): 97.05%
- viability at 48 h, 3 µM (in vitro): 101%
- viability at 48 h, 1 µM (in vitro; [18]): 102%
- viability at 48 h, 3 µM (in vitro; [18]): 101%

SMILES: Cc1cc(C)cc(C(=O)Nc2ccc3c(N4CCCC4)ncnc3c2)c1 [NCGC00425487-01]
- activity at 1 µM [1, 6]: 67.5%
- activity at 1 µM [1, 7]: 99.6%
- activity at 1 µM [1, 8]: 77.5%
- activity at 3 µM [1, 9]: 25.9%
- activity at 3 µM [1, 10]: 34.2%
- activity at 3 µM [1, 11]: 15.9%
- AC50 [1, 12]: 1000 nM
- AC50 [1, 13]: 1000 nM
- AC50 ([2]; read-out: AC50): 2370 nM
- Activity direction (Decrease / Inactive) [3, 19]: Decrease
- AC50 [3, 20]: 15800 nM
- AC50 [3, 21]: 15800 nM
- HepG2 viability signal, 1 uM, repeat 2 (HepG2-A16-CD81EGFP cells; [16]): 92.65%
- HepG2 viability signal, 3 uM, repeat 2 (HepG2-A16-CD81EGFP cells; [17]): 36.60%
- viability at 48 h, 1 µM (in vitro; [18]): 89%
- viability at 48 h, 3 µM (in vitro; [18]): 27.1%

SMILES: Cc1ccccc1[S+](=O)([O-])N1CCCC(CCC(=O)NCCN(C)C2CCCCC2)C1 (stereo not drawn) [NCGC00425745-01]
- activity at 1 µM [1, 6]: 72%
- activity at 1 µM [1, 7]: 61%
- activity at 1 µM [1, 8]: 64.9%
- activity at 3 µM [1, 9]: 42%
- activity at 3 µM [1, 10]: 57.8%
- activity at 3 µM [1, 11]: 54.8%
- AC50 [1, 12]: 1780 nM
- AC50 [1, 13]: 1780 nM
- AC50 [2]: 8410 nM
- Activity direction (Decrease / Inactive) [3, 19]: Decrease
- AC50 [3, 20]: 562 nM
- AC50 [3, 21]: 562 nM
- HepG2 viability signal, 1 uM, repeat 2 (HepG2-A16-CD81EGFP cells): 108.18%
- HepG2 viability signal, 3 uM, repeat 2 (HepG2-A16-CD81EGFP cells): 103.93%
- viability at 48 h, 1 µM (in vitro; [18]): 112%
- viability at 48 h, 3 µM (in vitro; [18]): 109%

SMILES: O=C(Nc1ccc2c(N3CCOCC3)ncnc2c1)c1cccc(Br)c1 [NCGC00425561-01]
- activity at 1 µM [1, 6]: 70.5%
- activity at 1 µM [1, 7]: 72.5%
- activity at 1 µM [1, 8]: 53.9%
- activity at 3 µM [1, 9]: 30.4%
- activity at 3 µM [1, 10]: 40.5%
- activity at 3 µM [1, 11]: 12.4%
- AC50 [1, 12]: 1410 nM
- AC50 [1, 13]: 1410 nM
- AC50 ([2]; read-out: AC50): 4220 nM
- Activity direction (Decrease / Inactive) [3]: Decrease
- AC50 ([3]; HepG2): 31600 nM
- AC50 ([3]; HepG2, read-out: Log AC50 (converted)): 31600 nM
- HepG2 viability signal, 1 uM, repeat 2 (HepG2-A16-CD81EGFP cells; [16]): 93.24%
- HepG2 viability signal, 3 uM, repeat 2 (HepG2-A16-CD81EGFP cells; [17]): 58.93%
- viability at 48 h, 1 µM (in vitro; [18]): 97.9%
- viability at 48 h, 3 µM (in vitro; [18]): 39.6%

SMILES: COc1cc2c(cc1Oc1cccc(N(C)C)c1)NC(=O)C21CCN(c2cnccn2)CC1 [NCGC00416778-01]
- Max Resp (signal direction of the dose response) [1]: Inactive
- activity at 1 µM [1, 6]: 86.6%
- activity at 1 µM [1, 7]: 95.1%
- activity at 1 µM [1, 8]: 107%
- activity at 3 µM [1, 9]: 35%
- activity at 3 µM [1, 10]: 40%
- activity at 3 µM [1, 11]: 53.9%
- AC50 ([2]; read-out: AC50): 1500 nM
- Activity direction (Decrease / Inactive) [3, 19]: Decrease
- AC50 [3, 20]: 1000 nM
- AC50 [3, 21]: 1000 nM
- HepG2 viability signal, 1 uM, repeat 2 (HepG2-A16-CD81EGFP cells; human, 48 h, 1 µM): 94.98%
- HepG2 viability signal, 3 uM, repeat 2 (HepG2-A16-CD81EGFP cells; human, 48 h, 3 µM): 87.34%
- viability at 48 h, 1 µM (in vitro): 101%
- viability at 48 h, 3 µM (in vitro): 89.7%

SMILES: CCC(CC)c1cc([C@H]2CN3CC[C@H]2C[C@@H]3CN[S+](=O)([O-])c2cccs2)nc(-c2ccncc2)n1 [NCGC00396883-01]
- Max Resp (signal direction of the dose response) [1]: Decrease
- AC50 [1, 4]: 708 nM
- Log AC50 (M) [1, 5]: -6.150 M
- activity at 1 µM [1, 6]: 64%
- activity at 1 µM [1, 7]: 69%
- activity at 1 µM [1, 8]: 109%
- activity at 3 µM [1, 9]: 37.8%
- activity at 3 µM [1, 10]: 32.5%
- activity at 3 µM [1, 11]: 35.3%
- AC50 [1, 12]: 501 nM
- AC50 [1, 13]: 501 nM
- AC50 ([2]; read-out: AC50): 2370 nM
- Max Resp (signal direction of the dose response) [3]: Decrease
- AC50 [3, 14]: 631 nM
- AC50 [3, 15]: 631 nM
- HepG2 viability signal, 1 uM, repeat 2 (HepG2-A16-CD81EGFP cells; human, 48 h, 1 µM): 98.83%
- HepG2 viability signal, 3 uM, repeat 2 (HepG2-A16-CD81EGFP cells; human, 48 h, 3 µM): 99.98%
- viability at 48 h, 1 µM (in vitro): 99.7%
- viability at 48 h, 3 µM (in vitro): 102%
